Assay results: article PMC4374917, “Identification of Small Molecules that Disrupt Signaling between ABL and Its Positive Regulator RIN1” (PLoS ONE, 2015)
Read-outs that look alike come from different tables or passages of the source.

Tests used:
[1] = target: T1, RIN1::ABL1 interaction (RIN1-SBP / ABL1-eGFP) (Homo sapiens, UniProt P00519+Q13671); assay: TR-FRET assay of RIN1::ABL binding; conditions: for IC50: 21 hits selected for cell-based assay, concentration-response curves in triplicate
T1 construct: The ABL1 amino terminus was amplified from AblWT1-531 (gift of Dr. John Kuriyan); TEV site-ProtA-Flag (C, cleaved yes); made in house; host or cells: Sf9 insect cells (baculovirus, pFastBac1)
Procedure: To measure binding between purified RIN1 and ABL proteins we designed a quantitative TR-FRET based assay.
The assay readout was calculated as a ratio of donor and acceptor emissions, a measurement independent of donor and acceptor concentrations that allows for reliable comparison across assays. Assay components were mixed in kinase buffer and incubated for one hour at room temperature to allow for RIN1-Y^36 phosphorylation by ABL1 and subsequent formation of a stable divalent interaction between these proteins. Each multi-well assay plate included negative control samples (streptavidin-terbium, ABL-eGFP and ATP without RIN1-SBP). […]

K562 cells = assay: K562 proliferation assay (MTS); format: cell-based, human; conditions: dose-response 3.125-100 μM, 48 hours, triplicate
Procedure: K562 cells were plated 3x10^4 cells/well in 96-well plates. Cells were treated with DMSO or test compound in dose-response (100, 50, 25, 12.5, 6.25, 3.125 μM) to a final DMSO concentration of 1%. After 48 hours of incubation at 37°C, cell proliferation was assessed by MTS assay (Promega CellTiter 96 AQueous One Solution) according to the manufacturer’s protocol. Absorbance at 490nm was read on a PerkinElmer Victor3 plate reader. Experiments were performed in triplicate.
K562 cells were treated with DMSO or test compound in dose-response. After 48 hours of incubation at 37°C, cell proliferation was assessed by MTS assay. Growth in the presence of test compound was normalized to DMSO-treated K562 cells and results are presented as % of growth relative to control. Experiments were performed in triplicate. (PDF) Click here for additional data file.

[2] = test system: MAPK1/3 phosphorylation in K562 cells; assay: pMAPK in K562 (immunoblot pMAPK1/3 / MAPK1/3); format: cell-based, human; conditions: for %inhibition of MAPK1/3 phosphorylation (pMAPK/MAPK ratio): 10 μM, 4 hours at 37°C, vs DMSO control, six biological replicates
Procedure: […] Each compound was tested with six biological replicates. Band intensity was quantified using LI-COR Odyssey, and the ratio of pMAPK/MAPK signal intensity is graphed for each compound and its DMSO control. Compounds are identified by their PubChem CID number.
Membranes were scanned and signal intensity quantified using a Li-Cor Odyssey scanner. To quantify RIN1 expression, signal intensities were first normalized to the housekeeping gene, tubulin. Phospho-MAPK1/3 signal intensities were normalized to total MAPK1/3. Changes in protein expression or phosphorylation were calculated as fold-change compared to control vector.
K562 with vector or RIN1 overexpression lentivirus were previously described. To analyze MAPK1 phosphorylation, confluent K562 cells were lysed in NP-40 buffer and immunoblotted. […] Cells from each well were harvested, lysed in 400 µL NP-40 and immunoblotted.
To test each compound, 5x10^5 K562 cells were plated on a 10 cm tissue culture plate and incubated for 3 days. Cells were harvested and the volume brought to 12 mLs with fresh medium. 1 mL of the cells was distributed into each well of a 12-well tissue culture plate. In 6 of the wells, 10 µL of 1 mM compound was added per well. 10 µL of DMSO was added to the remaining wells and mixed by pipetting up and down. Cells were incubated at 37°C and 5% CO2 for 4 hours. After incubation, cells were harvested from each well, lysed in 150 µL of RIPA buffer and analyzed as above.

native ABL1 = test system: native ABL1; parameters: method as in PMID 16415863, PMID 20072125; conditions: cited from earlier work
[3] = target: T2, ABL1-eGFP (CRK substrate) (Homo sapiens, UniProt P00519); assay: In vitro kinase assay for direct ABL inhibitors; format: biochemical; conditions: 10 μM test compound, 0.5 nM ABL-eGFP, 2 μM CRK, 30 minutes at 30°C, anti-phosphotyrosine immunoblot
T2 construct: The ABL1 amino terminus was amplified from AblWT1-531 (gift of Dr. John Kuriyan); made in house; host or cells: Sf9 insect cells (baculovirus, pFastBac1)
Procedure: To identify these direct ABL kinase inhibitors, we screened the compounds using an in vitro kinase assay. Purified ABL1-eGFP was incubated with CRK, a well-characterized substrate, in kinase buffer containing ATP.
0.5 nM purified ABL-eGFP was mixed with 2 μM CRK and 10 μM test compound and incubated in kinase buffer for 30 minutes at 30°C. Samples were analyzed by immunoblot using anti-phosphotyrosine. All the hits were screened, and a representative immunoblot is shown here.
The kinase assay to identify direct ABL kinase inhibitors from UCLA MSSR and TSRI hits was performed as described in PubChem BioAssay AID 624303 (https://pubchem.ncbi.nlm.nih.gov/assay/assay.cgi?aid=624303). Purified His6-CrkII was expressed and purified as previously described.

[4] = S2 Table, TR-FRET assay, maximal inhibition, read-out: Max response (%)

T1 sequence (P00519 1-531 isoform P00519-2): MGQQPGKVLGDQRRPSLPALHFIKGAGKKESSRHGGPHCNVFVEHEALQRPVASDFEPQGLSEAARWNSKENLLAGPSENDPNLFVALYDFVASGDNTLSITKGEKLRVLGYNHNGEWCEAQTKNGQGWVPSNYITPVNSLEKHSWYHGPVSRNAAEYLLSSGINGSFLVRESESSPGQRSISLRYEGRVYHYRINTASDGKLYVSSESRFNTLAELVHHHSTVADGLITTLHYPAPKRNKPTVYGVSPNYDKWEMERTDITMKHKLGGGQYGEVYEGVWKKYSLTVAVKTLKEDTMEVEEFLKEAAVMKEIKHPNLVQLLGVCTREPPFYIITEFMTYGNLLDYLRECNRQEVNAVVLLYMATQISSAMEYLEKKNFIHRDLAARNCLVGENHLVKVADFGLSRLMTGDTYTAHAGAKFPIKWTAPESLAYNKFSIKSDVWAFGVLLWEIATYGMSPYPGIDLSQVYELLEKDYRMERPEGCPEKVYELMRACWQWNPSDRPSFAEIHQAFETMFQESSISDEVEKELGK
T1 sequence (Q13671 whole entry): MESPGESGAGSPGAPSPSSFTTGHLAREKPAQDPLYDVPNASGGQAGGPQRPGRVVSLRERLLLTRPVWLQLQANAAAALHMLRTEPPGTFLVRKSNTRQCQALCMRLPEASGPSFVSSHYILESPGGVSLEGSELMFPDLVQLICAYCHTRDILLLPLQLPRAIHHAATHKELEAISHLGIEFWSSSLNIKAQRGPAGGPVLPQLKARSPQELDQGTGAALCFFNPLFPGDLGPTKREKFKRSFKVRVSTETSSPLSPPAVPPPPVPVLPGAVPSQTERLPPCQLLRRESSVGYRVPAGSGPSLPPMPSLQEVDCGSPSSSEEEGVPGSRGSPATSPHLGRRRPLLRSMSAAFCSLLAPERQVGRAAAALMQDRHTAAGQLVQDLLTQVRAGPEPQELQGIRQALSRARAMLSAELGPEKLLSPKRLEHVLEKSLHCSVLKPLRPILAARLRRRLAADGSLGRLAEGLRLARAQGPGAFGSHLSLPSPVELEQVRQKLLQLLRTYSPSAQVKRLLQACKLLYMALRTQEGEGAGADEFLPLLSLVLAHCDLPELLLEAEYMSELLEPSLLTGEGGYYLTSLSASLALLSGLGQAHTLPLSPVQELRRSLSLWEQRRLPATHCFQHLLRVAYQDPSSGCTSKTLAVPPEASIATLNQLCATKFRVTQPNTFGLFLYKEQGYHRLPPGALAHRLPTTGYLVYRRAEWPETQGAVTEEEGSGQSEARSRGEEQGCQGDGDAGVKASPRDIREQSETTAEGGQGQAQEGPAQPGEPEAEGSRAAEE
T2 sequence (P00519 1-531 isoform P00519-2): as the sequence (P00519 1-531 isoform P00519-2) above

IC50 ([1]; S2 Table) [µM]	Emax [1, 4] [%]	Structure (SMILES)	K562 proliferation (% growth relative to DMSO control) (K562 cells)	%inhibition of MAPK1/3 phosphorylation (pMAPK/MAPK ratio) [2] [%]	further results
2.53	86.2	CN(C(=O)c1ccc(NC(=O)Cc2ccc(NC(=O)C3CCN(C(=O)c4ccccc4)CC3)cc2)cc1)C1CC1 [compound 44142745]	decrease K562 proliferation	52 ± 47	Emax ([1]; S4 Table, N-acyl piperidine-4-carboxamide series SAR, RIN1-ABL dose-response curve, read-out: Max Response (%)): 89.1%
1.06	85.2	CN(C(=O)c1ccc(NC(=O)Cc2ccc(NC(=O)C3CCN(C(=O)c4ccc(F)cc4)CC3)cc2)cc1)C1CC1 [compound 56844185]	decrease K562 proliferation	57 ± 13	
3.67	84.8	COc1ccc(C(=O)N2CCC(C(=O)Nc3ccc(CC(=O)Nc4ccc(C(=O)N(C)C5CC5)cc4)cc3)CC2)cc1 [compound 56844186]	decrease K562 proliferation	75 ± 33	
1.35	86.8	CN(C(=O)c1ccc(NC(=O)Cc2ccc(NC(=O)C3CCN(C(=O)c4cccc(F)c4)CC3)cc2)cc1)C1CC1 [compound 56844188]	decrease K562 proliferation	75 ± 31	

The remaining lines, values behind:

Structure (SMILES)	IC50 ([1]; S2 Table) [µM]	Emax [1, 4] [%]	K562 proliferation (% growth relative to DMSO control) (K562 cells)	%inhibition of MAPK1/3 phosphorylation (pMAPK/MAPK ratio) [2] [%]	further results
COc1cccc(CSc2nnc(CSc3nc4nc(C)cc(C)n4n3)s2)c1 [compound 1818178]	9.57	95.7	decrease K562 proliferation	25 ± 20	
NC(=O)c1cccc(-c2cc(Nc3ccc(OC(F)(F)F)cc3)ncn2)c1 [GNF-2]					activity against native ABL1 (native ABL1): no activity
Cc1ccc(NC(=O)c2ccc(CN3CCN(C)CC3)cc2)cc1Nc1nccc(-c2cccnc2)n1 [imatinib, reference compound]					MAPK1/3 phosphorylation signal ([2]; 1 μM imatinib, 1 and 4 hours at 37°C): rapidly decreased
O=C(O[C@@H]1Cc2c(O)cc(O)cc2O[C@@H]1c1cc(O)c(=O)c2c(O)c(O)cc([C@H]3Oc4cc(O)cc(O)c4C[C@H]3OC(=O)c3cc(O)c(O)c(O)c3)c2c1)c1cc(O)c(O)c(O)c1 [theaflavin-3,3’-digallate]					ABL kinase activity: CRK and ABL phosphorylation [3]: directly inhibits ABL trans-phosphorylation of CRK as well as ABL; Activity in the TR-FRET screening assay (FRET ratio) ([1]; primary screen): decrease the FRET ratio
COc1ccc(CCNc2cc(=O)nc(N)[nH]2)cc1 [CID 1532134, 2-amino-6-[2-(4-methoxyphenyl)ethylamino]-1H-pyrimidin-4-one]					ABL kinase activity: CRK and ABL phosphorylation [3]: no activity
